Experimental data as given in patent US20040209799A1, “JAK/STAT pathway inhibitors and the uses thereof” (priority 2000, published 2004).

Target: T1, JAK3 (Homo sapiens, UniProt P52333)
T1 sequence (P52333 1-1124): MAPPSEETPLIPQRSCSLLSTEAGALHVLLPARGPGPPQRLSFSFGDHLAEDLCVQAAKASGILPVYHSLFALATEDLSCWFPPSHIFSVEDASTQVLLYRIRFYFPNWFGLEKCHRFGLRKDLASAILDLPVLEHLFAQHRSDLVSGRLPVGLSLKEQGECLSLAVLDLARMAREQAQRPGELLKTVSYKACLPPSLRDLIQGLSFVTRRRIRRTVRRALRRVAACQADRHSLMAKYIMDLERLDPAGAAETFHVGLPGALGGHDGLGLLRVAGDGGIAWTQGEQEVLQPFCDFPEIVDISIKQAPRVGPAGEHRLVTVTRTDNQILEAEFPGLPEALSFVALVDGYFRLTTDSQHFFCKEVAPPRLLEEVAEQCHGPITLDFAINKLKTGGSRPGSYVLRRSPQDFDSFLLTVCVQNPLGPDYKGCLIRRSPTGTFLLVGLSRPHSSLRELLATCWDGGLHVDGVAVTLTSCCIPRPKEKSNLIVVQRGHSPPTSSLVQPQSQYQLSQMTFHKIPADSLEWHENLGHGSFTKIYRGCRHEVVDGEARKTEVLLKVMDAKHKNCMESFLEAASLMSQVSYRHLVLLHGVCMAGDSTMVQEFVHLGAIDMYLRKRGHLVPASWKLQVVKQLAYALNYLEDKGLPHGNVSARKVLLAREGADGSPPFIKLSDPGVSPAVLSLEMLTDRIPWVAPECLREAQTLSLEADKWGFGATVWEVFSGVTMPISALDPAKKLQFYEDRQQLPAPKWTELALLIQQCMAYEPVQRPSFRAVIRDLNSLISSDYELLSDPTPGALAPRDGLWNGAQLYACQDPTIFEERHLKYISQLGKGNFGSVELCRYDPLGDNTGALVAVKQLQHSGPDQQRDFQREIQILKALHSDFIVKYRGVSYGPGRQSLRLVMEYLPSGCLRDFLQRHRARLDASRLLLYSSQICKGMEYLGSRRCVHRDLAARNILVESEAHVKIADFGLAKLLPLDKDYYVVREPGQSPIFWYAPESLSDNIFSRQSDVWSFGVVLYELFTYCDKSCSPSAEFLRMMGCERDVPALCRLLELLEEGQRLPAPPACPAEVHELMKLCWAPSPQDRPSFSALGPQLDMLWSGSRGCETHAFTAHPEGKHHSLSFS
Assay: tyrosine kinase ELISA, DBH inhibition of JAK3 (Example 6)
Type: biochemical
Details: GAS 1 biotinylated peptide substrate, 0-1250 μM ATP, 30 min at 37° C., read-out: inhibition constant (Ki)
Method: Nunc-Immunoplate Maxisorp flat-bottomed capture plates (Nalge Nunc International, Rochester, N.Y.) were coated with 80 μl/well anti-phosphotyrosine PY54 MAb antibody (Transduction Labs, Lexington, Ky.), diluted to 2 μg/ml in coating buffer (10 mM phosphate, pH 7.2+0.02% NaN3), and allowed to adsorb overnight at 4° C. The plates were washed (all washes are 4× with TBST: 25 mM Tris/HCl, pH 8.0, 150 mM NaCl+0.05% Tween-20), and 200 μl/well of blocking buffer (TBST+1% BSA) was added. The plates were sealed and incubated at 37° C. for 60 min or overnight at 4° C., and washed again.
Kinase reactions were run in 50 μl volumes with biotinylated peptide substrate in a round-bottom plate (Corning, Corning, N.Y.). Kinase reactions mixtures contained; 20 μl 50 μM GAS 1 biotinylated peptide (LCBiotin-EGPWLEEEEEAYGWMDF-amide), 0-1250 μM ATP in kinase buffer, 10 μl 50 mM MgCl2 in 2× kinase buffer (50 mM imidazole/HCl, 2 mM EDTA, 0.2 mM EDTA, 0.030% Brij-35, pH 6.8), 10 μl 0-50 μM DBH in water containing 0.2% Pluronic-104 and 3% dimethyl sulfoxide (DMSO), and 10 μl JAK3 enzyme diluted in kinase buffer. A phosphopeptide standard curve (0-10 nM) using kinase buffer as the diluent was also tested.
Kinase reactions were run for 30 min at 37° C., then stopped by adding 15 μl/well of 0.125 M EDTA, pH 6.8. […] Samples were read at A450-A620.

Question: For NC1=NC(=O)C(=C2CCNC(=O)c3[nH]ccc32)N1 [DBH, 4-(2-amino-4-oxo-2-imidazolin-5-ylidene)-4,5,6,7-tetrahydropyrrolo(2,3-c) azepine-8-one], which Ki is on record?
Answer: 286 ± 16 nM
